For orientation: IC50 means the midpoint of a concentration-inhibition curve.

Test [1] concerns the target T1, Tissue factor (Homo sapiens, UniProt P13726). The experiment in a line: (§1) Inhibition of LPS-induced tissue factor procoagulant activity in human THP1 cells preincubated for 1 hr followed by LPS addition measured after 5 hrs using factor 10a chromogenic substrate in presence of prothrombin complex.
In test [2] the target is T1, Tissue factor. In words: ChEBML_1654816. The method, then: as §1

T1 sequence (P13726 whole entry): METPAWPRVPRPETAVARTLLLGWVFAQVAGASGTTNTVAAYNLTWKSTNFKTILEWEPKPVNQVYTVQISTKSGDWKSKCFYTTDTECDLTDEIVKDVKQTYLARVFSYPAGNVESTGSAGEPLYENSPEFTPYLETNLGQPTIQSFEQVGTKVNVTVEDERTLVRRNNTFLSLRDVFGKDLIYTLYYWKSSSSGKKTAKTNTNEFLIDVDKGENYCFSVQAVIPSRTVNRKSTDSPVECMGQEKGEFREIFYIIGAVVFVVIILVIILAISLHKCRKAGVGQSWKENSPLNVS

As to `CC1(C)CC[C@]2(C(=O)O[C@@H]3O[C@H](CO)[C@@H](O)[C@H](O)[C@H]3O)CC[C@]3(C)C(=CC[C@@H]4[C@@]5(C)CC[C@H](O[C@@H]6O[C@H](CO)[C@@H](O)[C@H](O)[C@H]6O)C(C)(C)[C@@H]5CC[C@]43C)[C@@H]2C1`, at Tissue factor [1], the IC50 worked out at 16 nM.

`CC1(C)CC[C@]2(C(=O)O)CC[C@]3(C)C(=CC[C@@H]4[C@@]5(C)CC[C@H](O)C(C)(C)[C@@H]5CC[C@]43C)[C@@H]2C1` [Oleanolic acid (OA)(Compound 1)]: the IC50 at Tissue factor [1] was determined as 5 nM.

In the case of `CC1(C)CC[C@]2(C(=O)O[C@@H]3O[C@H](CO)[C@@H](O)[C@H](O)[C@H]3O)CC[C@]3(C)C(=CC[C@@H]4[C@@]5(C)CC[C@H](O)C(C)(C)[C@@H]5CC[C@]43C)[C@@H]2C1` [CHEBI:67985], the half-inhibitory concentration (IC50) at Tissue factor [1] turned out to be 0.035 nM.

With `C=C(C)[C@@H]1CC[C@]2(C(=O)O[C@@H]3O[C@H](CO)[C@@H](O)[C@H](O)[C@H]3O)CC[C@]3(C)C(CC[C@@H]4[C@@]5(C)CC[C@H](O[C@@H]6O[C@H](CO)[C@@H](O)[C@H](O)[C@H]6O)C(C)(C)[C@@H]5CC[C@]43C)[C@H]12` (some centres undefined), the IC50 against Tissue factor [2] was found to be 0.64 nM.

`C=C(C)[C@@H]1CC[C@]2(C(=O)O)CC[C@]3(C)C(CC[C@@H]4[C@@]5(C)CC[C@H](O)[C@@](C)(CO)[C@@H]5CC[C@]43C)[C@H]12` (some centres undefined): at Tissue factor [1], the 50% inhibitory concentration (IC50) came out at 0.221 nM.

`CC1(C)CC[C@]2(C(=O)O[C@@H]3O[C@H](CO)[C@@H](O)[C@H](O)[C@H]3O)[C@H](O)C[C@]3(C)C(=CC[C@@H]4[C@@]5(C)CC[C@H](O)[C@](C)(CO)[C@@H]5CC[C@]43C)[C@@H]2C1` returned a 50% inhibitory concentration (IC50) at Tissue factor [2] of 0.801 nM.

With `CC1(C)CC[C@]2(C(=O)O)CC[C@]3(C)C(=CC[C@@H]4[C@@]5(C)CCC(=O)C(C)(C)[C@@H]5CC[C@]43C)[C@@H]2C1` [Oleanonic Acid], the half-maximal inhibitory concentration (IC50) at Tissue factor [1] is 0.221 nM.

For `CC1(C)CC[C@]2(C(=O)O)CC[C@]3(C)C(=CC[C@@H]4[C@@]5(C)CC[C@H](O)[C@](C)(CO)[C@@H]5CC[C@]43C)[C@@H]2C1`, at Tissue factor [1], the 50% inhibitory concentration (IC50) stood at 1.3 nM.

Compound `CC1(C)CC[C@]2(C(=O)O)CC[C@]3(C)C(=CC[C@@H]4[C@@]5(C)CC[C@H](O[C@@H]6O[C@H](CO)[C@@H](O)[C@H](O)[C@H]6O)C(C)(C)[C@@H]5CC[C@]43C)[C@@H]2C1` [Vitalboside A] registered a concentration for half-maximal inhibition (IC50) on Tissue factor [2] of 0.095 nM.

Take `C=C(C)[C@@H]1CC[C@]2(C(=O)O[C@@H]3O[C@H](CO)[C@@H](O)[C@H](O)[C@H]3O)CC[C@]3(C)C(CC[C@@H]4[C@@]5(C)CC[C@H](O)[C@@](C)(CO)[C@@H]5CC[C@]43C)[C@H]12` (some centres undefined): the 50% inhibitory concentration (IC50) on Tissue factor [1] came to 0.028 nM.

For the compound `CC1(C)CC[C@]2(C(=O)OCc3ccccc3)CC[C@]3(C)C(=CC[C@@H]4[C@@]5(C)CC[C@H](O)C(C)(C)[C@@H]5CC[C@]43C)[C@@H]2C1` [benzyl (4aS,6aS,6bR,8aR,10S,12aR,12bR,14bS)-10-hydroxy-2,2,6a,6b,9,9,12a-heptamethyl-1,3,4,5,6,7,8,8a,10,11,12,12b,13,14b-tetradecahydropicene-4a-carboxylate (Compound 4)], the IC50 at Tissue factor [1] stood at 4.7 nM.

With `C=C(C)[C@@H]1CC[C@]2(C(=O)O[C@@H]3O[C@H](CO)[C@@H](O)[C@H](O)[C@H]3O)CC[C@]3(C)C(CC[C@@H]4[C@@]5(C)CC[C@H](O)C(C)(C)[C@@H]5CC[C@]43C)[C@H]12` (some centres undefined), the IC50 on Tissue factor [1] amounted to 0.078 nM.

`CC1(C)CC[C@]2(C(=O)O)[C@H](O)C[C@]3(C)C(=CC[C@@H]4[C@@]5(C)CC[C@H](O)C(C)(C)[C@@H]5CC[C@]43C)[C@@H]2C1` [CHEBI:4747] yielded an IC50 at Tissue factor [2] of 0.054 nM.

Consider `CC1(C)CC[C@]2(C(=O)O)CC[C@]3(C)C(=CC[C@@H]4[C@@]5(C)CC[C@H](O)[C@@](C)(CO)[C@@H]5CC[C@]43C)[C@@H]2C1` [4-Epi-Hederagenin], for which, on Tissue factor [1], the IC50 stood at 0.221 nM.

As for `CC1(C)CC[C@]2(C(=O)O[C@@H]3O[C@H](CO)[C@@H](O)[C@H](O)[C@H]3O)[C@H](O)C[C@]3(C)C(=CC[C@@H]4[C@@]5(C)CC[C@H](O)C(C)(C)[C@@H]5CC[C@]43C)[C@@H]2C1`, at Tissue factor [1], the half-inhibitory concentration (IC50) was 11 nM.

Take `CC1(C)CC[C@]2(C(=O)O[C@@H]3O[C@H](CO)[C@@H](O)[C@H](O)[C@H]3O)[C@H](O)C[C@]3(C)C(=CC[C@@H]4[C@@]5(C)CC[C@H](O[C@@H]6O[C@H](CO)[C@@H](O)[C@H](O)[C@H]6O)C(C)(C)[C@@H]5CC[C@]43C)[C@@H]2C1`: the IC50 on Tissue factor [1] was determined as 9.6 nM.

On to `CC1(C)CC[C@]2(C(=O)O[C@@H]3O[C@H](CO)[C@@H](O)[C@H](O)[C@H]3O)CC[C@]3(C)C(=CC[C@@H]4[C@@]5(C)CC[C@H](O)[C@@](C)(CO)[C@@H]5CC[C@]43C)[C@@H]2C1` [CHEBI:67947], for which the concentration for half-maximal inhibition (IC50) at Tissue factor [2] amounted to 0.28 nM.

On to `CC1(C)CC[C@]2(C(=O)O[C@@H]3O[C@H](CO)[C@@H](O)[C@H](O)[C@H]3O)CC[C@]3(C)C(=CC[C@@H]4[C@@]5(C)CC[C@H](O)[C@](C)(CO)[C@@H]5CC[C@]43C)[C@@H]2C1`, for which the IC50 at Tissue factor [1] came out at 6.5 nM.

In turn, `COc1cc(/C=C/C(=O)CC(=O)/C=C/c2ccc(O)c(OC)c2)ccc1O` [CHEBI:3962] registered a concentration for half-maximal inhibition (IC50) at Tissue factor [2] of 13 nM.

Source of the values: BindingDB's records for doi:10.1016/j.bmcl.2016.12.066 (China Pharmaceutical University, 2017).
